Data: patent US10787452B2 (Vertex Pharmaceuticals Incorporated, priority 2012, dated 2020)
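For Cisplatin sensitization assay in this document: compound concentration needed to lower the Cisplatin-alone IC50 by a set fold.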

Each molecule was assayed on HCT116 colorectal cancer cells (assay: Cisplatin sensitization assay (96 h cell viability MTS)). Conditions: 96 h MTS, compound plus Cisplatin.
Assay type: cell-based
How it was run: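 Viability is measured with MTS reagent, added after 96 h and developed for 1 h at 37° C. Beforehand, cells receive compound and cisplatin simultaneously in a concentration matrix of 2-fold serial dilutions starting at 10 μM final.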
With `Nc1nn2cc(F)cnc2c1C(=O)Nc1cnccc1-c1ccc(C(=O)N2CCN3CCC2CC3)cc1F` [I-C-50, N-(4-(4-(1,4-diazabicyclo[3.2.2]nonane-4-carbonyl)-2-fluorophenyl)pyridin-3-yl)-2-amino-6-fluoropyrazolo[1,5-a]pyrimidine-3-carboxamide] the “Cisplatin Sensitization Assay” value was “+++ (Compounds with a Cisplatin sensitization value of <0.02 μM are marked with “+++.”)”. With `Nc1nn2cc(F)cnc2c1C(=O)Nc1cncc(F)c1N1CCC(C(=O)O)CC1` [I-N-92, 1-(3-(2-amino-6-fluoropyrazolo[1,5-a]pyrimidine-3-carboxamido)-5-fluoropyridin-4-yl)piperidine-4-carboxylic Acid] the “Cisplatin Sensitization Assay” value was “+ (Compounds with a Cisplatin sensitization value >0.2 μM but <5 μM are marked with “+.”)”. `Nc1nn2cc(Cl)cnc2c1C(=O)Nc1cnccc1OC1CCCNC1` (centres unmarked) [I-O-75, 2-amino-6-chloro-N-(4-(piperidin-3-yloxy)pyridin-3-yl)pyrazolo[1,5-a]pyrimidine-3-carboxamide] was tested, and the “Cisplatin Sensitization Assay” value was “++ (Compounds with a Cisplatin sensitization value >0.02 μM but <0.2 μM are marked with “++.”)”. With `Nc1nn2cc(Cl)cnc2c1C(=O)Nc1cnccc1O[C@@H]1CCNC1` [I-O-77, (R)-2-amino-6-chloro-N-(4-(pyrrolidin-3-yloxy)pyridin-3-yl)pyrazolo[1,5-a]pyrimidine-3-carboxamide] the “Cisplatin Sensitization Assay” value was “++ (Compounds with a Cisplatin sensitization value >0.02 μM but <0.2 μM are marked with “++.”)”. With `Nc1nn2cc(Cl)cnc2c1C(=O)Nc1cnccc1O[C@H]1C[C@]2(CCN2)C1` [I-O-78, N-(4-((4s,6r)-1-azaspiro[3.3]heptan-6-yloxy)pyridin-3-yl)-2-amino-6-chloropyrazolo[1,5-a]pyrimidine-3-carboxamide] the “Cisplatin Sensitization Assay” value was “+ (Compounds with a Cisplatin sensitization value >0.2 μM but <5 μM are marked with “+.”)”. In the case of `Nc1nn2cc(Cl)cnc2c1C(=O)Nc1cnccc1O[C@H]1C[C@@]2(CCN2)C1` [I-O-79, N-(4-((4r,6s)-1-azaspiro[3.3]heptan-6-yloxy)pyridin-3-yl)-2-amino-6-chloropyrazolo[1,5-a]pyrimidine-3-carboxamide], the “Cisplatin Sensitization Assay” value is reported as “++ (Compounds with a Cisplatin sensitization value >0.02 μM but <0.2 μM are marked with “++.”)”. In the case of `Nc1nn2cc(Cl)cnc2c1C(=O)Nc1cnccc1OC1CCNCC1` [I-O-80, 2-amino-6-chloro-N-(4-(piperidin-4-yloxy)pyridin-3-yl)pyrazolo[1,5-a]pyrimidine-3-carboxamide], the “Cisplatin Sensitization Assay” value is reported as “+++ (Compounds with a Cisplatin sensitization value of <0.02 μM are marked with “+++.”)”. With `Nc1nn2cc(Cl)cnc2c1C(=O)Nc1cnccc1O[C@@H]1CCCNC1` [I-O-81, (R)-2-amino-6-chloro-N-(4-(piperidin-3-yloxy)pyridin-3-yl)pyrazolo[1,5-a]pyrimidine-3-carboxamide] the “Cisplatin Sensitization Assay” value was “++ (Compounds with a Cisplatin sensitization value >0.02 μM but <0.2 μM are marked with “++.”)”. `N#CCc1cnc2c(C(=O)Nc3cnccc3OC3CNC3)c(N)nn2c1` [I-O-82, 2-amino-N-(4-(azetidin-3-yloxy)pyridin-3-yl)-6-(cyanomethyl)pyrazolo[1,5-a]pyrimidine-3-carboxamide] was tested, and the “Cisplatin Sensitization Assay” value was “++ (Compounds with a Cisplatin sensitization value >0.02 μM but <0.2 μM are marked with “++.”)”. For `N#CCc1cnc2c(C(=O)Nc3cnccc3OCCN)c(N)nn2c1` [I-O-83, 2-amino-N-(4-(2-aminoethoxy)pyridin-3-yl)-6-(cyanomethyl)pyrazolo[1,5-a]pyrimidine-3-carboxamide], the “Cisplatin Sensitization Assay” value was “+++ (Compounds with a Cisplatin sensitization value of <0.02 μM are marked with “+++.”)”. In the case of `N#CCc1cnc2c(C(=O)Nc3cnccc3OC3CCNCC3)c(N)nn2c1` [I-O-84, 2-amino-6-(cyanomethyl)-N-(4-(piperidin-4-yloxy)pyridin-3-yl)pyrazolo[1,5-a]pyrimidine-3-carboxamide], the “Cisplatin Sensitization Assay” value is reported as “++ (Compounds with a Cisplatin sensitization value >0.02 μM but <0.2 μM are marked with “++.”)”. In the case of `Nc1nn2cc(F)cnc2c1C(=O)Nc1cnccc1O[C@H]1CCCNC1` [I-O-85, (S)-2-amino-6-fluoro-N-(4-(piperidin-3-yloxy)pyridin-3-yl)pyrazolo[1,5-a]pyrimidine-3-carboxamide], the “Cisplatin Sensitization Assay” value is reported as “+++ (Compounds with a Cisplatin sensitization value of <0.02 μM are marked with “+++.”)”. `N#CCc1cnc2c(C(=O)Nc3cnccc3O[C@H]3CCNC3)c(N)nn2c1` [I-O-86, (S)-2-amino-6-(cyanomethyl)-N-(4-(pyrrolidin-3-yloxy)pyridin-3-yl)pyrazolo[1,5-a]pyrimidine-3-carboxamide] was tested, and the “Cisplatin Sensitization Assay” value was “++ (Compounds with a Cisplatin sensitization value >0.02 μM but <0.2 μM are marked with “++.”)”. For `CC(C)(C)Oc1ccncc1NC(=O)c1c(N)nn2cc(F)cnc12` [I-O-88, 2-amino-N-(4-(tert-butoxy)pyridin-3-yl)-6-fluoropyrazolo[1,5-a]pyrimidine-3-carboxamide], the “Cisplatin Sensitization Assay” value was “+++ (Compounds with a Cisplatin sensitization value of <0.02 μM are marked with “+++.”)”. For `CN1CCC(Oc2c(F)cncc2NC(=O)c2c(N)nn3cc(F)cnc23)CC1` [I-O-89, 2-amino-6-fluoro-N-(5-fluoro-4-((1-methylpiperidin-4-yl)oxy)pyridin-3-yl)pyrazolo[1,5-a]pyrimidine-3-carboxamide], the “Cisplatin Sensitization Assay” value was “++ (Compounds with a Cisplatin sensitization value >0.02 μM but <0.2 μM are marked with “++.”)”. In the case of `CNc1cc(OC)c(NC(=O)c2c(N)nn3cc(F)cnc23)cn1` [I-O-90, 2-amino-6-fluoro-N-(4-methoxy-6-(methylamino)pyridin-3-yl)pyrazolo[1,5-a]pyrimidine-3-carboxamide], the “Cisplatin Sensitization Assay” value is reported as “+ (Compounds with a Cisplatin sensitization value >0.2 μM but <5 μM are marked with “+.”)”. In the case of `Nc1nn2cc(F)cnc2c1C(=O)Nc1cncc(F)c1OC1CCN(C2COC2)CC1` [I-O-91, 2-amino-6-fluoro-N-(5-fluoro-4-((1-(oxetan-3-yl)piperidin-4-yl)oxy)pyridin-3-yl)pyrazolo[1,5-a]pyrimidine-3-carboxamide], the “Cisplatin Sensitization Assay” value is reported as “++ (Compounds with a Cisplatin sensitization value >0.02 μM but <0.2 μM are marked with “++.”)”. `Nc1nn2cc(F)cnc2c1C(=O)Nc1cnccc1OC1COC1` [I-O-92, 2-amino-6-fluoro-N-(4-(oxetan-3-yloxy)pyridin-3-yl)pyrazolo[1,5-a]pyrimidine-3-carboxamide] was tested, and the “Cisplatin Sensitization Assay” value was “+++ (Compounds with a Cisplatin sensitization value of <0.02 μM are marked with “+++.”)”.

These molecules were tested against full-length ATR (Homo sapiens (Human), UniProt Q13535) (assay: ATR inhibition assay (radioactive-phosphate incorporation)). Conditions: 5 nM full-length ATR, Ki(app).
full-length ATR, sequence (Q13535 whole entry): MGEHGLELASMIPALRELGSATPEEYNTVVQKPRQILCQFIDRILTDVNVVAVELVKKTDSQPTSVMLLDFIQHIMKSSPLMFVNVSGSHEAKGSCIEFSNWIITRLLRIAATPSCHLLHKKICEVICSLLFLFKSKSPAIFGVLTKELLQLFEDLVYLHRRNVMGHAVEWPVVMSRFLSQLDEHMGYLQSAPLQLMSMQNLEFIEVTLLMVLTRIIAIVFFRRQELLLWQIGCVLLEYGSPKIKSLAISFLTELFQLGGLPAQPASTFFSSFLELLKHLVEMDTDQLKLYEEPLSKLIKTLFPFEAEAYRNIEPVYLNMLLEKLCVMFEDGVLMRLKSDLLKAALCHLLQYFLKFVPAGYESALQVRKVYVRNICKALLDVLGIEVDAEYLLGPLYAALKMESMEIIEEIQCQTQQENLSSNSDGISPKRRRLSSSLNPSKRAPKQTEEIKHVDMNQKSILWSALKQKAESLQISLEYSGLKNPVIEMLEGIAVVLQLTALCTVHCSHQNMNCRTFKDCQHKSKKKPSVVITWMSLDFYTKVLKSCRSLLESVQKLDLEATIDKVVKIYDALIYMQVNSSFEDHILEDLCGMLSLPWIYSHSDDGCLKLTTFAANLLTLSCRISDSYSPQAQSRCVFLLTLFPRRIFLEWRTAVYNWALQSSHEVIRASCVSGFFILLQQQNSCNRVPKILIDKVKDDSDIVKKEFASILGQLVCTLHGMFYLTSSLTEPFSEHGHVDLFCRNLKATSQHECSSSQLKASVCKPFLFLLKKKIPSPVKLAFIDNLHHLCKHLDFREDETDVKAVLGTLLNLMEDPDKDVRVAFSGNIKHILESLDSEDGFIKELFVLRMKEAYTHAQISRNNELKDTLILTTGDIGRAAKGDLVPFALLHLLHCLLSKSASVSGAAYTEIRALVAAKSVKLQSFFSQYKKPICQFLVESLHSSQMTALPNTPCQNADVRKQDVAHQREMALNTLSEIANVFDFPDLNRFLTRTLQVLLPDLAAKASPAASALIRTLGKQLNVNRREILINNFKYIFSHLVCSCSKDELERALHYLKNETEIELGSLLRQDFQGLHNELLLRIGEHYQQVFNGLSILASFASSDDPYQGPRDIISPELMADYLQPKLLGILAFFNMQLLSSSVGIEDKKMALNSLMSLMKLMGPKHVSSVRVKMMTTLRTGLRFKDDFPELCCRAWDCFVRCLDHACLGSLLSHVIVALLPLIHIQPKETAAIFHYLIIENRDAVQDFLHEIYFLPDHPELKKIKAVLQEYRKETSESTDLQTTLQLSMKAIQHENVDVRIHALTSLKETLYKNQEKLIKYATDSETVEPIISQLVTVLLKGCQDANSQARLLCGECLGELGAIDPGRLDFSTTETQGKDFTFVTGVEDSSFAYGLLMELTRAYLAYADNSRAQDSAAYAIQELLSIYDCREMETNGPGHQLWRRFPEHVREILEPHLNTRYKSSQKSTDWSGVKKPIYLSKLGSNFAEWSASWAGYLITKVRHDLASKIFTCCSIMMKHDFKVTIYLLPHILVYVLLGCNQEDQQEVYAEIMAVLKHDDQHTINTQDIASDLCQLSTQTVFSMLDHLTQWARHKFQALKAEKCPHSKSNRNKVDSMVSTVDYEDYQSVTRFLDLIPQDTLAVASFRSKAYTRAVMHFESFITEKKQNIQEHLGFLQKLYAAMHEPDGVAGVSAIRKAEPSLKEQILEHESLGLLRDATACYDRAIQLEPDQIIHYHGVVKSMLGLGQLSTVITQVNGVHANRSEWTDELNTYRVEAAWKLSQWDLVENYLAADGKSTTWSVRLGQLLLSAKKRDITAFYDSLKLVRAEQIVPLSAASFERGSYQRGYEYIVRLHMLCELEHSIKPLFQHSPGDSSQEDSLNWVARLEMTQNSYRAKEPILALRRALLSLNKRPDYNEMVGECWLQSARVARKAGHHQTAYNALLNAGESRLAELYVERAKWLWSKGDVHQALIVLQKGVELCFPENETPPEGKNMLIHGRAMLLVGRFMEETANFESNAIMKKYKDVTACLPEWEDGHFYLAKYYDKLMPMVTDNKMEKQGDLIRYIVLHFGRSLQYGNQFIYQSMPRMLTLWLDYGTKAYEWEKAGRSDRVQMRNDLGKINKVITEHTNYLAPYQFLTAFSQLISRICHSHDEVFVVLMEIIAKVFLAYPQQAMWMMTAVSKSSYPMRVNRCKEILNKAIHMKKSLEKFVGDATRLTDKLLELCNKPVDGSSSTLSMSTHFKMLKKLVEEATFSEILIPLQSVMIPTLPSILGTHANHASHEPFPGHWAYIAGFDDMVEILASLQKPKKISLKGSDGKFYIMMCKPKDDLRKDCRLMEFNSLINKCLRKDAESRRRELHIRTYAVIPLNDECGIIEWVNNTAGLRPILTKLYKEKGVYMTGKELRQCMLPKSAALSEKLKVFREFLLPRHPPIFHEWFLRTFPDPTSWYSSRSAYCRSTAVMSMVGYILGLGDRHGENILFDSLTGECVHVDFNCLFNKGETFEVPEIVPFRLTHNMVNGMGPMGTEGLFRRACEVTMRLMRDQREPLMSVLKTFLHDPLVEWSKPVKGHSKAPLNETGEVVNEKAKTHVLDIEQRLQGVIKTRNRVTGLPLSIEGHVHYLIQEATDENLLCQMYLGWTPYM
Assay type: biochemical
Protocol: Compounds were screened for their ability to inhibit ATR kinase using a radioactive-phosphate incorporation assay. Assays were carried out in a mixture of 50 mM Tris/HCl (pH 7.5), 10 mM MgCl2 and 1 mM DTT. Final substrate concentrations were 10 μM [y-33P]ATP (3 mCi 33P ATP/mmol ATP, Perkin Elmer) and 800 μM target peptide ([…]) (SEQ ID NO:1).
Assays were carried out at 25° C. in the presence of 5 nM full-length ATR. An assay stock buffer solution was prepared containing all of the reagents listed above, with the exception of ATP and the test compound of interest. 13.5 μL of the stock solution was placed in a 96 well plate followed by addition of 2 μL of DMSO stock containing serial dilutions of the test compound (typically starting from a final concentration of 15 μM with 3-fold serial dilutions) in duplicate (final DMSO concentration 7%). The plate was pre-incubated for 10 minutes at 25° C. and the reaction initiated by addition of 15 μL [γ-33P]ATP (final concentration 10 μM).
The reaction was stopped after […] by the addition of 30 μL 0.1M phosphoric acid containing 2 mM ATP. […]
After removing mean background values for all of the data points, Ki(app) data were calculated from non-linear regression analysis of the initial rate data using the Prism software package (GraphPad Prism version 3.0 cx for Macintosh, GraphPad Software, San Diego Calif., USA).
`Nc1nn2cc(F)cnc2c1C(=O)Nc1cnccc1-c1ccc(C(=O)N2CCN3CCC2CC3)cc1F` [I-C-50, N-(4-(4-(1,4-diazabicyclo[3.2.2]nonane-4-carbonyl)-2-fluorophenyl)pyridin-3-yl)-2-amino-6-fluoropyrazolo[1,5-a]pyrimidine-3-carboxamide] gave a Ki of 10 to 1000 nM. Work on `Nc1nn2cc(F)cnc2c1C(=O)Nc1cncc(F)c1N1CCC(C(=O)O)CC1` [I-N-92, 1-(3-(2-amino-6-fluoropyrazolo[1,5-a]pyrimidine-3-carboxamido)-5-fluoropyridin-4-yl)piperidine-4-carboxylic Acid] yielded a Ki of 1000 to 5000 nM.
